Reference: paper PMC11859031, “Assessment of the In Vitro Biological Activities of Schiff Base-Synthesized Copper Oxide Nanoparticles as an Anti-Diabetic, Anti-Alzheimer, and Anti-Cancer Agent” (Pharmaceutics, 2025)

Experiments:
[1] = molecular target: α-glucosidase (Saccharomyces cerevisiae, UniProt P53341); format: biochemical
Procedure: (§1) The absorbance was measured at 540 nm using a UV-Visible spectrophotometer. The IC50 of each tested sample was calculated by plotting a curve using a series of sample concentrations against the percent of α-amylase inhibition.
(§2) The inhibition percentage (%) of the α-glucosidase enzyme was determined using the […]
(§3) standard drug. Five μL of the α-glucosidase solution (10 units mL−1, 0.1moll−1 potassium phosphate buffer, pH 6.8) was pre -mixed with 10 μL of the sample solution at different concentrations (in 10% DMSO) i n 620 μL of 0.1 moll−1 potassium […]
(§4) phosphate buffer (pH 6.8). […]
(§5) phenyl glucopyranoside (pNPG, 10 mmoll−1) as a substrate was added to the mixture […]
(§6) minutes, followed by the addition of 650 μL of 1 moll−1 Na2CO3 solution to terminate the reaction. The amount of released product (p-nitro phenol) was measured at 410 […]
activity. The inhibition assay was performed in triplicate for all tests. The IC50 of each tested sample was calculated by plotting a curve using a series of sample concentrations against the percent of α-glucosidase inhibition.
3.4. Anti-Alzheimer's activity
(§7) In this study, we assessed the inhibition percentage of the acetylcholinesterase (AChE) enzyme using Ellman's method with donepezil as the standard drug. […] After incubation, 5 µL of AChE at a concentration of 0.3 U/mL was added to start the reaction, and the absorbance […]

[2] = molecular target: T1, α-amylase (Sus scrofa, UniProt P00690); test: α-amylase inhibition (anti-diabetic); format: biochemical; conditions: at 100 µg/mL; mean ± SE, n = 3
T1 sequence (P00690 16-511): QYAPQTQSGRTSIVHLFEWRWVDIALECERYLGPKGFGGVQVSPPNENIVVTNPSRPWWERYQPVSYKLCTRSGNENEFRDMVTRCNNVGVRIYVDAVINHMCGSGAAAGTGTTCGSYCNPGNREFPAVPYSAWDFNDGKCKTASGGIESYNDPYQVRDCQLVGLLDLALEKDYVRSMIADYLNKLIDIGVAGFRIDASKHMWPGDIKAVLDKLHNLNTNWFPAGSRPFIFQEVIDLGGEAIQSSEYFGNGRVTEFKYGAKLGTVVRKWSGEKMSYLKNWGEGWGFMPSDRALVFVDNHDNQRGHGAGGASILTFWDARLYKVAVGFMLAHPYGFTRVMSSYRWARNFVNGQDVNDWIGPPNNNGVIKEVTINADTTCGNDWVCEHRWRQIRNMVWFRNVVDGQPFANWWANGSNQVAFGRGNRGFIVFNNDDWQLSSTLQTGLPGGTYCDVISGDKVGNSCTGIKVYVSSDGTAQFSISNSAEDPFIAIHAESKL
Procedure: 3.3. Anti-diabetic activity […]
tetrahydrate in 8.0 mL of 2 M NaOH and 20 mL of 96 mM of DNSA solution). The […]
as §1, §2, §3, §4, §5, §6
activity. […] The IC50 of each tested sample was calculated by plotting a curve using a series of sample concentrations against the percent of α-glucosidase inhibition. […]
as §7

α-glucosidase, sequence (P53341 whole entry): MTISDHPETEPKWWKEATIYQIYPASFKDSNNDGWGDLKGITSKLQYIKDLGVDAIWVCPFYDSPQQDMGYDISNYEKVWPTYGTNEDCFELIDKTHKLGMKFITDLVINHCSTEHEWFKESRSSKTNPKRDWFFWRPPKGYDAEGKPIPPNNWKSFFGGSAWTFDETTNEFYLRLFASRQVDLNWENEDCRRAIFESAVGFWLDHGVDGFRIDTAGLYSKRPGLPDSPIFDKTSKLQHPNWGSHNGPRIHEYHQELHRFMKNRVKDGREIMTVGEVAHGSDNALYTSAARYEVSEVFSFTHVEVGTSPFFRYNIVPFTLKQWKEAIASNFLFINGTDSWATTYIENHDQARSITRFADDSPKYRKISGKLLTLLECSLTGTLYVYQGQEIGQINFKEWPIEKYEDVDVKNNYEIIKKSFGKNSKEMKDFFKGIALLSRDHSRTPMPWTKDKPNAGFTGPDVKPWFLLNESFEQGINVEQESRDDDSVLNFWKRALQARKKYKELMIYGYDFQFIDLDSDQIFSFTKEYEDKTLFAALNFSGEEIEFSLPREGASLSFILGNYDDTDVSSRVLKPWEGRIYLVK

In the case of C[C@H]1O[C@H](O[C@H]2[C@H](O)[C@@H](O)[C@@H](O[C@H]3[C@H](O)[C@@H](O)C(O)O[C@@H]3CO)O[C@@H]2CO)[C@H](O)[C@@H](O)[C@@H]1N[C@H]1C=C(CO)[C@@H](O)[C@H](O)[C@H]1O (some centres unmarked) [Acarbose], the “α-Glucosidase Inhib. (%)” value [1] is reported as 44.71 ± 0.10 Acarbose % and the “α-Amylase Inhib. (%)” value [2] is reported as 54.96 ± 0.10 Acarbose %.
